Holding throughout (assay): biochemical
What all share (set-up): Eurofins KinaseProfiler full panel at Km ATP, residual kinase activity (%) relative to DMSO

Experiment [1] has as its target T1, EphB1(h) (Homo sapiens, UniProt P54762).
T1 sequence (P54762 1-984): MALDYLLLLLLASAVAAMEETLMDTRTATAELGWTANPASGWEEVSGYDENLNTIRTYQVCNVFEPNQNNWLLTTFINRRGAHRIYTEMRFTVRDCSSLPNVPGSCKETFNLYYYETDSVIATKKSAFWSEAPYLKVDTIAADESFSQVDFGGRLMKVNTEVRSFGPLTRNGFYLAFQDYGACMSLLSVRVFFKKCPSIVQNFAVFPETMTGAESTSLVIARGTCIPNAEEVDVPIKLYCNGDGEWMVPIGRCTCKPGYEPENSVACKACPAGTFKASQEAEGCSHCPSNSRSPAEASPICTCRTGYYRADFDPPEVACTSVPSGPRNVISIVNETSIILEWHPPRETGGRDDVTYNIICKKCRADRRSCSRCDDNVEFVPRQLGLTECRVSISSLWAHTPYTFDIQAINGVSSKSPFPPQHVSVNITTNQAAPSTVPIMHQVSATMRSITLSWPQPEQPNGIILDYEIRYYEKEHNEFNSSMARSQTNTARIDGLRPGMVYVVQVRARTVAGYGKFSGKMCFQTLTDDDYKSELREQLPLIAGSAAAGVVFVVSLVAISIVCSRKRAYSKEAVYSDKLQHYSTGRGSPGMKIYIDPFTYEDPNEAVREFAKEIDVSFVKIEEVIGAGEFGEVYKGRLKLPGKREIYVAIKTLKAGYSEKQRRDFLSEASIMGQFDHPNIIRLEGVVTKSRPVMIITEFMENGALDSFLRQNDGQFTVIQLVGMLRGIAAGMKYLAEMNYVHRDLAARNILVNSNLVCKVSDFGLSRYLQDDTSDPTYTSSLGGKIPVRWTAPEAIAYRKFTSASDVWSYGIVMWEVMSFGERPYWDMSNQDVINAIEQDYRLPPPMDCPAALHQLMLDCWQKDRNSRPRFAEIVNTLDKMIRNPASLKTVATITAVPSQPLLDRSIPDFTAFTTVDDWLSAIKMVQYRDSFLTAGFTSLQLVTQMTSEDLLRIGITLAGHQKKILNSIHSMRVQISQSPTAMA
The essentials: (§1)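 Compounds screened at 10 µM in radiometric kinase activity assays at Km ATP, reported as remaining kinase activity (%). A KINOMEscan competition-binding screen at 10 µM measured DNA-tagged kinase retained on immobilized active-site ligand by qPCR.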

Experiment [2] addresses T2, IRE1(h) (Homo sapiens, UniProt O75460).
T2 construct: gene ERN1
The essentials:
as §1

The target of experiment [3] is TAF1L(h) (Homo sapiens, UniProt Q8IZX4). The essentials:
as §1

Experiment [4] concerns the target T3, MEKK2(h) (Homo sapiens, UniProt Q9Y2U5).
T3 construct: gene MAP3K2
T3 sequence (Q9Y2U5 1-619): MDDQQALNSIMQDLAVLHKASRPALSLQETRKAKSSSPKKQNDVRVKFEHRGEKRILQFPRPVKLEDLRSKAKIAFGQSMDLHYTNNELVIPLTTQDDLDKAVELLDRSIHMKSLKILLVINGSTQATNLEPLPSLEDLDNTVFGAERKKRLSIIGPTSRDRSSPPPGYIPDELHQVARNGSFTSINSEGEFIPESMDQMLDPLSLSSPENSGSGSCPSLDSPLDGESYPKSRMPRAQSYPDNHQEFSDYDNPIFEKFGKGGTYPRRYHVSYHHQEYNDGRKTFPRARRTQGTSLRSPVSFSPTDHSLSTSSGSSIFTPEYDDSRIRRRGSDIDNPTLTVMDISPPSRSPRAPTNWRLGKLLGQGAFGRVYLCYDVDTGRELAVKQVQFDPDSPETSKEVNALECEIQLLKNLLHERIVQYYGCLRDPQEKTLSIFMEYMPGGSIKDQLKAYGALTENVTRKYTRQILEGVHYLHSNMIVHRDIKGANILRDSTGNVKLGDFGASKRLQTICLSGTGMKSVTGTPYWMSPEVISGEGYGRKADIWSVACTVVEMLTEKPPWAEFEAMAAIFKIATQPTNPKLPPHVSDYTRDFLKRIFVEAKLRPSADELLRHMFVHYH
The essentials: as §1

Experiment [5] concerns the target T4, PKBβ(h) (Homo sapiens, UniProt P31751).
T4 construct: gene AKT2
The essentials: as §1

Setting [6] is: read-out: Residual activity (%) 5at.
Setting [7] is: read-out: Residual activity (%) 5ay.
The mark [8] stands for this setting: read-out: Residual activity (%) 5as.
Setting [9] is: read-out: Residual activity (%) Spautin-1 5aa.

This passage reports remaining activity results from paper PMC7827406, “Structure–Activity Relationship (SAR) Study of Spautin-1 to Entail the Discovery of Novel NEK4 Inhibitors” (International Journal of Molecular Sciences, 2021).

Like-named read-outs stand apart in the source and are kept apart here.

Chain of TAF1L(h) (Q8IZX4 whole entry): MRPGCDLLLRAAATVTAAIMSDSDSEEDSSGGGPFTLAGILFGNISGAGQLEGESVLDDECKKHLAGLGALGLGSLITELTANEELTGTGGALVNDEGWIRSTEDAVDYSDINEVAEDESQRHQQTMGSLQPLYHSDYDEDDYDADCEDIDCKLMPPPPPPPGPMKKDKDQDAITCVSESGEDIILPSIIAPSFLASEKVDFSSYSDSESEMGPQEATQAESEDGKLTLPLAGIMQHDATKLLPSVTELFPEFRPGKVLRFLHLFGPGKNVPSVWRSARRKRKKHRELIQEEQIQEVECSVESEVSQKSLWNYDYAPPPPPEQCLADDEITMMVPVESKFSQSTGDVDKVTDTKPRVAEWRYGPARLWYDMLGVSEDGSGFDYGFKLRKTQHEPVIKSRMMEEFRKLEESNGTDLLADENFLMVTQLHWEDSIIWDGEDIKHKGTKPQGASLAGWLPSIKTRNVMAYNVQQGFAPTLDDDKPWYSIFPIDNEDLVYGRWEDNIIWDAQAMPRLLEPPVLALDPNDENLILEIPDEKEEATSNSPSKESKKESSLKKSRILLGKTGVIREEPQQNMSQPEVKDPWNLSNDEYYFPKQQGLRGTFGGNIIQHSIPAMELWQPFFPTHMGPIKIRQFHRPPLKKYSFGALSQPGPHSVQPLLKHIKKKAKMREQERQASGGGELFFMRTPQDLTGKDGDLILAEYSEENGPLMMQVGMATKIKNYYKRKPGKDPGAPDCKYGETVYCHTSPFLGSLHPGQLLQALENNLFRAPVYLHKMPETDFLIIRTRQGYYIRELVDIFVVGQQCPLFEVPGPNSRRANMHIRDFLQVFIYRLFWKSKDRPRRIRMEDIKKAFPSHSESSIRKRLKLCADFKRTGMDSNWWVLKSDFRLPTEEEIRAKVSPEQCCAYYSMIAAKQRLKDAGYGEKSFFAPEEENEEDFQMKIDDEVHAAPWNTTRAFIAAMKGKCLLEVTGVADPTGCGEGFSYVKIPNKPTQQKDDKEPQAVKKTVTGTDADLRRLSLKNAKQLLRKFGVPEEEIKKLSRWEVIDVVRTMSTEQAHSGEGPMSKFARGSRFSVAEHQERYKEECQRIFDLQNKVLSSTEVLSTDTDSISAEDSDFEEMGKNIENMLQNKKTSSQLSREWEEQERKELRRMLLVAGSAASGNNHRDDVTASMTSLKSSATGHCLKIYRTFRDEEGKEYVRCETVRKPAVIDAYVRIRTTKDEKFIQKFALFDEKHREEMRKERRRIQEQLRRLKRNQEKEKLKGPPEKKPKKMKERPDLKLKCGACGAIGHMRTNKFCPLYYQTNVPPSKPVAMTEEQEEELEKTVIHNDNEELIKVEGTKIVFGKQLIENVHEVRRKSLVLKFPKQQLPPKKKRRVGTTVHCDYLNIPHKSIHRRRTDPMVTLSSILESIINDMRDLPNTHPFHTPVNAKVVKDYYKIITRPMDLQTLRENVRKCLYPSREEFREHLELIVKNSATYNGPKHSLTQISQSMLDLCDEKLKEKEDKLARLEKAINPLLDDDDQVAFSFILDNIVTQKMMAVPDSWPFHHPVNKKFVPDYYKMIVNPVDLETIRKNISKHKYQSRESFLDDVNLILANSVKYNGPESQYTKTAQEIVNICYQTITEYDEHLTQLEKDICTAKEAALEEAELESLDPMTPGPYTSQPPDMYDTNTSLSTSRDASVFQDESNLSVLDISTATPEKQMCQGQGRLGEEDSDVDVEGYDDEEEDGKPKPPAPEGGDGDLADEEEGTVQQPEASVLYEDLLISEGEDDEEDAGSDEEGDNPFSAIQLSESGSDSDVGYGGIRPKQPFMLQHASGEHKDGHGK
T2 sequence (O75460 whole entry): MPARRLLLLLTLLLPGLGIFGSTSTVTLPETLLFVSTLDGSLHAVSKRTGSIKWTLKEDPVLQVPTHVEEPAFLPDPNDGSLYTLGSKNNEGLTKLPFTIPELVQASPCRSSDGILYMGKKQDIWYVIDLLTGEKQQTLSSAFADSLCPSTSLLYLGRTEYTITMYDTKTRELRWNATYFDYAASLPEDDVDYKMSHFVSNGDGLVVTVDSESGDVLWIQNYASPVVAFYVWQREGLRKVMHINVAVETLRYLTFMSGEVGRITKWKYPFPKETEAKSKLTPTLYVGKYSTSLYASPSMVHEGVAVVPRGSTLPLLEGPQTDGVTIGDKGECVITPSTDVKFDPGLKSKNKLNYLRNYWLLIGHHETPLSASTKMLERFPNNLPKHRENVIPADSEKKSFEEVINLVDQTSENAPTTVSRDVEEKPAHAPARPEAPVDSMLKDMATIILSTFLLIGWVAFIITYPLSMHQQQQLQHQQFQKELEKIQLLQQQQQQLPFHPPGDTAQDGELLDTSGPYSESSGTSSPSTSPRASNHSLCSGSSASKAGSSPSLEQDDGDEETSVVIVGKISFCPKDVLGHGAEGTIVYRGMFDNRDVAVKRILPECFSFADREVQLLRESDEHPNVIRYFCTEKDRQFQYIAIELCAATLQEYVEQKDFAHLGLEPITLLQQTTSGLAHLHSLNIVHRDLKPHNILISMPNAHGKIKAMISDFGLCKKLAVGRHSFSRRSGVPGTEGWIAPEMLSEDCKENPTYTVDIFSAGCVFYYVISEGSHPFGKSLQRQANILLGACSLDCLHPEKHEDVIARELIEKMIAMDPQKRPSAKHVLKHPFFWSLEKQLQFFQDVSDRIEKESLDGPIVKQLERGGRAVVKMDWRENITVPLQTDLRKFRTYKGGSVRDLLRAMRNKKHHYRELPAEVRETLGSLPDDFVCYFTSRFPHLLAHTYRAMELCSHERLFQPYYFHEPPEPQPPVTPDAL
T4 sequence (P31751 whole entry): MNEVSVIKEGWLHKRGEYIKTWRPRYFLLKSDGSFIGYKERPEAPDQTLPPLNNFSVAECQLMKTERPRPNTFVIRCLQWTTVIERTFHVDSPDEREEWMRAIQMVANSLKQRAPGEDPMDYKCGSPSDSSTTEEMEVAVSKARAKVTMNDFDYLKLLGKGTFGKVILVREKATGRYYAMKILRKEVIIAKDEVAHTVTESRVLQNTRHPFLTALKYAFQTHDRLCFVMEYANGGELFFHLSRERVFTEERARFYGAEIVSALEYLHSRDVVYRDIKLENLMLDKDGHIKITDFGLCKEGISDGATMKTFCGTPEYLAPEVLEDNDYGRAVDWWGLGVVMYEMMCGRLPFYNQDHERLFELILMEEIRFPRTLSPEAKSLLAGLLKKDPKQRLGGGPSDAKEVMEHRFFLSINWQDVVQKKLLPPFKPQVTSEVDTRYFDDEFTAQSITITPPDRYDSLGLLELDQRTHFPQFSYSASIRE

As for `Fc1ccc2ncnc(NCCc3ccc(Cl)cc3)c2c1` [5at, N-[2-(4-Chlorophenyl)Ethyl]-6-Fluoro-4-Quinazolinamine], the remaining activity at 10 µM in experiment [1] (setting [6]) came to 95%; in experiment [2] (setting [6]), 88%; in experiment [3] (setting [6]), 70%; in experiment [4] (setting [6]) it was 102%; in experiment [5] (setting [6]), 75%.

In the case of `COc1ccc2ncnc(Nc3cccc(F)c3)c2c1` [5ay, N-(3-Fluorophenyl)-6-Methoxy-4-Quinazolinamine], the remaining activity at 10 µM was 88% in experiment [1] (setting [7]); 83% in experiment [2] (setting [7]); 32% in experiment [3] (setting [7]); 108% in experiment [4] (setting [7]); 106% in experiment [5] (setting [7]).

In the case of `Fc1ccc(CCNc2ncnc3ccc(F)cc23)cc1` [5as, 6-Fluoro-N-[2-(4-Fluorophenyl)Ethyl]-4-Quinazolinamine], the remaining activity at 10 µM in experiment [1] (setting [8]) stood at 90%; in experiment [2] (setting [8]), 89%; in experiment [3] (setting [8]) it was 66%; in experiment [4] (setting [8]), 99%; in experiment [5] (setting [8]) it was 84%.

Take `Fc1ccc(CNc2ncnc3ccc(F)cc23)cc1` [5aa, 6-Fluoro-N-(4-fluorobenzyl)-4-Quinazolinamine]: the remaining activity at 10 µM is 84% in experiment [1] (setting [9]); 99% in experiment [2] (setting [9]); 80% in experiment [3] (setting [9]); 113% in experiment [4] (setting [9]); 106% in experiment [5] (setting [9]).
